# Test results as given in patent publication US11767305B2, “Advantageous benzofuran compositions for mental disorders or enhancement” (Tactogen Inc, priority 2020, dated 2023).
# Entries after “also recorded” stand apart in the source; their conditions may differ.
# Key:
# [1] = molecular target: T1, SERT (Homo sapiens (Human), UniProt P31645); conditions: read-out: IC50 inhibiting reuptake at SERT; cited from earlier work
# [2] = molecular target: T2, DAT (Homo sapiens (Human), UniProt Q01959); conditions: read-out: IC50 inhibiting reuptake at DAT; cited from earlier work
# [3] = molecular target: T3, serotonin (5-HT) transporter (SERT) (Rattus norvegicus (Rat), UniProt P31652); assay: Rat synaptosome SERT [3H]5-HT uptake inhibition assay; conditions: Inhibition of [3H]5-HT Uptake at SERT IC50 (nM), 5 nM [3H]5-HT
# [4] = tested on: neuritogenesis; conditions: cited from earlier work
# [5] = molecular target: T3, serotonin (5-HT) transporter (SERT); assay: Rat synaptosome SERT [3H]5-HT release assay; conditions: [3H]5-HT release via SERT EC50 (nM), 5 nM [3H]5-HT
# [6] = molecular target: 5-HT1B (Homo sapiens (Human), UniProt P28222); conditions: cited from earlier work
# [7] = molecular target: T1, SERT; assay: hSERT release assay in CHO cells ([3H]serotonin); conditions: read-out: EC50 SERT (Mean ± SEM), CHO cells expressing hSERT
# [8] = tested on: Caco-2; assay: In vitro absorption assay, Caco-2 permeability; assay type: in vitro ADME; conditions: for Permeability (Papp, 10^-6 cm/s) A-B / Permeability (Papp, 10^-6 cm/s) B-A: 10 μM
# Procedure: (§1) The permeability of 10 μM RS-5-MAPB in Caco-2, MDCKII, and MDR1-MDCKII cell line assays was assessed (Table 6). Both the AB and BA directions with and without the addition of a Pgp-specific inhibitor (verapamil), a MRP1 inhibitor (MK571), and an ATP-binding cassette subfamily G member 2 (ABCG2/BCRP) inhibitor (KO143) were measured. Trials were repeated twice, and values averaged.
# [9] = tested on: MDR1-MDCKII; assay: In vitro absorption assay, MDR1-MDCKII permeability; assay type: in vitro ADME; conditions: 10 μM
# Procedure: as §1
# [10] = tested on: MDCKII; assay: In vitro absorption assay, MDCKII permeability; assay type: in vitro ADME; conditions: 10 μM, pH 7.4/7.4
# Procedure: as §1
# [11] = molecular target: T2, DAT; assay: hDAT release assay in CHO cells ([3H]dopamine); conditions: read-out: EC50 DAT (Mean ± SEM), CHO cells expressing hDAT
# [12] = tested on: healthy human individual; assay: Human effects of non-racemic 5-MAPB, self-reported ratings (Good, Bad, Open); assay type: in vivo; conditions: averaged from all sessions, 54 mg 5-MAPB HCl oral in two halves
# Procedure: The effects of non-racemic 5-MAPB HCl were tested by a healthy human individual at four different ratios of enantiomers plus the racemate as a control: • 54 mg S and 0 mg R (100% S) • 47 mg Sand 7 mg R (87% S) • 36 mg S and 18 mg R (67% S) • 27 mg S and 27 mg R (50% S) • 7 mg S and 47 mg R (13% S)
# Two trials were carried out at each ratio, except for 13% S where only one was conducted. Trials were at least 72 h apart.
# 5-MAPB HCl was dissolved in 1.5 ml distilled water and consumed in two halves, separated by 1 hour. Starting at 3 hours after administration, tablets of 250 mg ascorbic acid and capsules of 300 mg alpha lipoic acid were taken ad libitum (approximately every hour for a total of 4 administrations).
# Measurements were made approximately every 2 hours until post 6 hours and the maximum ratings per session were analyzed. Additionally, an index of good drug effects versus emotional openness, calculated as (Open−Good)/(200, the theoretical maximum of Open+Good), was constructed at each time point and the maximum analyzed. In healthy volunteers, Good Ratings can be considered a predictor of abuse liability. Accordingly, this index can be used as an indicator of the balance of a therapeutic effect (emotional openness) vs abuse liability.
# Historic data of two trials 50 mg RS-5-MAPB Cl from the same individual were also included in the analysis for comparison.
# Chain of 5-HT1B (P28222 whole entry, looked up, species assumed): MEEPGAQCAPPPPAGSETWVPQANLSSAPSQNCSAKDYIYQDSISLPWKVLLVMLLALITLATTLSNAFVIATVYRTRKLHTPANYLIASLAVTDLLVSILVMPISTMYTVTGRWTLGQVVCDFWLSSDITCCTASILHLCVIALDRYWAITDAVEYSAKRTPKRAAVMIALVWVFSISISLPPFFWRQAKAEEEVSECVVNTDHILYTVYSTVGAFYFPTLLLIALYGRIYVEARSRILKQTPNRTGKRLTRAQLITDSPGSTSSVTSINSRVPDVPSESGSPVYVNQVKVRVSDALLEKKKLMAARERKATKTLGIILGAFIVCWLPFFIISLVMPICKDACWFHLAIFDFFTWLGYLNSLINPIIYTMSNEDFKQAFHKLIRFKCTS
structure (smiles),measurement,setting,value
"CNC(C)Cc1ccc2occc2c1 (racemic) [racemic 5-MAPB, 1-(benzofuran-5-yl)-N-methylpropan-2-amine]",IC50,[1],8500 nM
same,IC50,[2],3100 nM
CNC(C)Cc1ccc2c(c1)OCO2 (stereo not shown) [MDMA],IC50,[3],384 ± 32.8 nM
same,EC50,[4]; read-out: EC50 for promoting neuritogenesis,7.41 nM
same,Emax for promoting neuritogenesis,[4]; relative to ketamine,approximately twice that of ketamine
same,EC50,[5],94.3 ± 13.6 nM
same,binding to 5-HT1B,[6],does not bind directly
CNC(C)Cc1ccc2occc2c1.Cl (stereo not shown) [RS-5-MAPB],EC50,[7],90 ± 16 nM
same,"Permeability (Papp, 10^-6 cm/s) A-B","[8]; Caco-2, pH 7.4/7.4",81 10^-6 cm/s
same,"Permeability (Papp, 10^-6 cm/s) B-A","[8]; Caco-2, pH 7.4/7.4",29.1 10^-6 cm/s
same,"Permeability (Papp, 10^-6 cm/s) A-B","[8]; Caco-2, pH 7.4/7.4 + KO143",75.3 10^-6 cm/s
same,"Permeability (Papp, 10^-6 cm/s) B-A","[8]; Caco-2, pH 7.4/7.4 + KO143",14 10^-6 cm/s
same,"Permeability (Papp, 10^-6 cm/s) A-B","[8]; Caco-2, pH 7.4/7.4 + verapamil",37.6 10^-6 cm/s
same,"Permeability (Papp, 10^-6 cm/s) B-A","[8]; Caco-2, pH 7.4/7.4 + verapamil",23 10^-6 cm/s
same,absorption and transport (conclusion from permeability assays),"[8]; Caco-2, MDCKII and MDR1-MDCKII",well absorbed; also recorded: actively transported through a mechanism that was inhibited by verapamil
same,"Permeability (Papp, 10^-6 cm/s) A-B",[9]; pH 7.4/7.4,68.7 10^-6 cm/s
same,"Permeability (Papp, 10^-6 cm/s) B-A",[9]; pH 7.4/7.4,20.5 10^-6 cm/s
same,"Permeability (Papp, 10^-6 cm/s) A-B",[9]; pH 7.4/7.4 + verapamil,42.8 10^-6 cm/s
same,"Permeability (Papp, 10^-6 cm/s) B-A",[9]; pH 7.4/7.4 + verapamil,30.4 10^-6 cm/s
same,"Permeability (Papp, 10^-6 cm/s) A-B",[10],82.1 10^-6 cm/s
same,"Permeability (Papp, 10^-6 cm/s) B-A",[10],19.8 10^-6 cm/s
same,EC50,[11],459 ± 48 nM
same,Bad,[12]; maximum 0-100 rating of bad drug effects,10%
same,Open,[12]; maximum 0-100 rating of emotional openness,45%
same,Good,[12]; maximum 0-100 rating of good drug effects,50%
